Source: the NIST ThermoML archive (doi:10.1016/j.fluid.2007.04.014)
± gives the expanded uncertainty stated by the source.

Legend:
[1] = Solid-liquid equilibrium temperature; details: Crystal, Closed cell (Static) method
[2] = Crystal; Closed cell (Static) method

CCCCCCCCCCCCCCCCC [heptadecane]
[1]
Details | Solid-liquid equilibrium temperature [K]
20800 kPa | 299.75 ± 0.46
40100 kPa | 304.05 ± 0.48
60100 kPa | 308.3 ± 0.49
80100 kPa | 312.4 ± 0.5
99300 kPa | 316.5 ± 0.51

Details | Normal melting temperature [°C]
[2] | 22.20 ± 0.4
